Numbers after ± are expanded uncertainties.
What was measured:
[1] = xn = mol fraction of the nth substance listed; conditions: 101.3 kPa, Liquid, Vibrating tube method
[2] = molar heat capacity at constant pressure; xn = mol fraction of the nth substance listed; conditions: 101.3 kPa, Liquid, Small sample (50 mg) DSC
[3] = excess molar enthalpy (molar enthalpy of mixing); xn = mol fraction of the nth substance listed; conditions: 303.15 K, 101.3 kPa, Liquid, Calvet calorimetry

C[N+](=O)[O-] [nitromethane] + CCOS(=O)(=O)[O-].CCn1cc[n+](C)c1
Conditions	mass density, [1] [kg/m3]	molar heat capacity at constant pressure, [2] [J/K/mol]
293.15 K, x2 = 0.0513	1162.5 ± 0.7	120.8 ± 1.9
293.15 K, x2 = 0.0991	1176.4 ± 0.8	134.3 ± 2.1
293.15 K, x2 = 0.2013	1196.4 ± 0.8	164 ± 2.5
293.15 K, x2 = 0.3095	1209.6 ± 0.9	195.4 ± 3
293.15 K, x2 = 0.4073	1217.8 ± 1	223.5 ± 3.5
293.15 K, x2 = 0.5056	1223.9 ± 1	–
293.15 K, x2 = 0.5489	1226.3 ± 1.1	264 ± 4.1
293.15 K, x2 = 0.5944	1228.3 ± 1.1	–
293.15 K, x2 = 0.689	1232.1 ± 1.2	304 ± 4.7
293.15 K, x2 = 0.7805	1235.1 ± 1.2	329.9 ± 5.1
293.15 K, x2 = 0.8817	1237.9 ± 1.3	358.6 ± 5.6
293.15 K, x2 = 0.9398	1239.3 ± 1.3	–
293.15 K, x2 = 0.9522	1239.6 ± 1.3	–
298.15 K, x2 = 0.0513	1156.4 ± 0.7	121.1 ± 1.9
298.15 K, x2 = 0.0991	1170.9 ± 0.8	134.7 ± 2.1
298.15 K, x2 = 0.2013	1191.5 ± 0.8	164.6 ± 2.6
298.15 K, x2 = 0.3095	1205.1 ± 0.9	196.1 ± 3
298.15 K, x2 = 0.4073	1213.6 ± 1	224.4 ± 3.5
298.15 K, x2 = 0.5056	1220 ± 1	–
298.15 K, x2 = 0.5489	1222.4 ± 1.1	265.2 ± 4.1
298.15 K, x2 = 0.5944	1224.5 ± 1.1	–
298.15 K, x2 = 0.689	1228.4 ± 1.2	305.5 ± 4.7
298.15 K, x2 = 0.7805	1231.5 ± 1.2	331.6 ± 5.1
298.15 K, x2 = 0.8817	1234.4 ± 1.3	360.5 ± 5.6
298.15 K, x2 = 0.9398	1235.8 ± 1.3	–
298.15 K, x2 = 0.9522	1236.2 ± 1.3	–
303.15 K, x2 = 0.0513	1150.4 ± 0.7	121.6 ± 1.9
303.15 K, x2 = 0.0991	1165.3 ± 0.8	135.3 ± 2.1
303.15 K, x2 = 0.2013	1186.6 ± 0.8	165.3 ± 2.6
303.15 K, x2 = 0.3095	1200.7 ± 0.9	196.9 ± 3.1
303.15 K, x2 = 0.4073	1209.5 ± 1	225.5 ± 3.5
303.15 K, x2 = 0.5056	1216 ± 1	–
303.15 K, x2 = 0.5489	1218.5 ± 1.1	266.6 ± 4.1
303.15 K, x2 = 0.5944	1220.7 ± 1.1	–
303.15 K, x2 = 0.689	1224.7 ± 1.1	307.2 ± 4.8
303.15 K, x2 = 0.7805	1228 ± 1.2	333.5 ± 5.2
303.15 K, x2 = 0.8817	1230.9 ± 1.3	362.6 ± 5.6
303.15 K, x2 = 0.9398	1232.4 ± 1.3	–
303.15 K, x2 = 0.9522	1232.7 ± 1.3	–
308.15 K, x2 = 0.0513	1144.3 ± 0.7	122.1 ± 1.9
308.15 K, x2 = 0.0991	1159.7 ± 0.7	135.9 ± 2.1
308.15 K, x2 = 0.2013	1181.7 ± 0.8	166 ± 2.6
308.15 K, x2 = 0.3095	1196.2 ± 0.9	197.8 ± 3.1
308.15 K, x2 = 0.4073	1205.3 ± 1	226.7 ± 3.5
308.15 K, x2 = 0.5056	1212.1 ± 1	–
308.15 K, x2 = 0.5489	1214.6 ± 1	268.1 ± 4.2
308.15 K, x2 = 0.5944	1216.9 ± 1.1	–
308.15 K, x2 = 0.689	1221 ± 1.1	308.9 ± 4.8
308.15 K, x2 = 0.7805	1224.4 ± 1.2	335.5 ± 5.2
308.15 K, x2 = 0.8817	1227.5 ± 1.3	364.8 ± 5.7
308.15 K, x2 = 0.9398	1229 ± 1.3	–
308.15 K, x2 = 0.9522	1229.3 ± 1.3	–
313.15 K, x2 = 0.0513	1138.2 ± 0.7	122.7 ± 1.9
313.15 K, x2 = 0.0991	1154.2 ± 0.7	136.6 ± 2.1
313.15 K, x2 = 0.2013	1176.9 ± 0.8	166.8 ± 2.6
313.15 K, x2 = 0.3095	1191.8 ± 0.9	198.7 ± 3.1
313.15 K, x2 = 0.4073	1201.2 ± 1	227.9 ± 3.5
313.15 K, x2 = 0.5056	1208.2 ± 1	–
313.15 K, x2 = 0.5489	1210.8 ± 1	269.7 ± 4.2
313.15 K, x2 = 0.5944	1213.1 ± 1.1	–
313.15 K, x2 = 0.689	1217.4 ± 1.1	310.9 ± 4.8
313.15 K, x2 = 0.7805	1220.9 ± 1.2	337.7 ± 5.2
313.15 K, x2 = 0.8817	1224 ± 1.3	367.1 ± 5.7
313.15 K, x2 = 0.9398	1225.6 ± 1.3	–
313.15 K, x2 = 0.9522	1225.9 ± 1.3	–
318.15 K, x2 = 0.0513	1132.2 ± 0.7	123.2 ± 1.9
318.15 K, x2 = 0.0991	1148.6 ± 0.7	137.2 ± 2.1
318.15 K, x2 = 0.2013	1172 ± 0.8	167.6 ± 2.6
318.15 K, x2 = 0.3095	1187.4 ± 0.9	199.7 ± 3.1
318.15 K, x2 = 0.4073	1197.1 ± 0.9	229.2 ± 3.6
318.15 K, x2 = 0.5056	1204.2 ± 1	–
318.15 K, x2 = 0.5489	1207 ± 1	271.4 ± 4.2
318.15 K, x2 = 0.5944	1209.3 ± 1.1	–
318.15 K, x2 = 0.689	1213.8 ± 1.1	312.9 ± 4.8
318.15 K, x2 = 0.7805	1217.3 ± 1.2	340 ± 5.3
318.15 K, x2 = 0.8817	1220.6 ± 1.2	369.6 ± 5.7
318.15 K, x2 = 0.9398	1222.2 ± 1.3	–
318.15 K, x2 = 0.9522	1222.5 ± 1.3	–

[3]
Conditions	excess molar enthalpy [kcal/mol]
x2 = 0.1001	-0.0688 ± 0.0055
x2 = 0.1977	-0.116 ± 0.00932
x2 = 0.3075	-0.142 ± 0.0115
x2 = 0.4001	-0.154 ± 0.0124
x2 = 0.5071	-0.148 ± 0.012
x2 = 0.6026	-0.131 ± 0.0105
x2 = 0.6953	-0.108 ± 0.0086
x2 = 0.8026	-0.0736 ± 0.00598
x2 = 0.8668	-0.05 ± 0.00406

From the NIST ThermoML archive (doi:10.1016/j.jct.2008.09.002)
